Among the data in patent US20260176289A1, “SMALL MOLECULE INHIBITORS OF KRAS PROTEINS” (Merck Sharp & Dohme LLC, priority 2022, published 2026) are IC50 values, retold here.

By IC50 is commonly meant the concentration needed to halve the response being measured.

Structures are written as SMILES.

For test [1], the target named is KRAS-G12C (C51S/C80L/C118S) (Homo sapiens, UniProt P01116, C118S/C51S/C80L/G12C). Put plainly: SOS-catalyzed nucleotide exchange assay (Procedure A, TR-FRET), KRAS-G12C. It is filed as biochemical. As to conditions: nucleotide exchange, Procedure A; read-out: KRAS G12C GNE IC50. A digest of the protocol:
(§1)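 Inhibitors stabilizing the Bodipy-GDP state are detected as retained TR-FRET from a preformed biotinylated RAS/Tb-streptavidin complex. They are preincubated 60 min at room temperature, then human SOS and 3 mM GTP are added. G12V runs 90 min at 1.25 nM RAS/160 nM SOS. G12C (3 nM), WT (1 nM) and NRAS (1.25 nM) run 60 min with 40 nM SOS.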

Test [2] deals with KRAS-WT (Homo sapiens, UniProt P01116). Put plainly: SOS-catalyzed nucleotide exchange assay (Procedure A, TR-FRET), KRAS-WT. Type of test: biochemical. As to conditions: nucleotide exchange, read-out: KRAS WT GNE IC50. The essentials:
as §1

The subject of test [3] is SW620 cells. Briefly: Cellular phospho-ERK assay, SW620 cells (homozygous KRAS-G12V). As to conditions: Homo sapiens, SW-620, KRAS-G12V, 2 hours, read-out: SW620 pERK IC50. It is filed as cell-based. The essentials:
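Cells were seeded overnight, then treated 2 h at 37° C with compound in a 10-point, 1:3 titration from 30 μM top final concentration. Lysates were assayed by AlphaLISA SureFire Ultra for p-ERK and total ERK. IC50 came from a 4-parameter logistic fit of the p-ERK/total ERK ratio.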

Sequence of KRAS-WT (P01116 with tags, fused parts or gaps isoform P01116-2): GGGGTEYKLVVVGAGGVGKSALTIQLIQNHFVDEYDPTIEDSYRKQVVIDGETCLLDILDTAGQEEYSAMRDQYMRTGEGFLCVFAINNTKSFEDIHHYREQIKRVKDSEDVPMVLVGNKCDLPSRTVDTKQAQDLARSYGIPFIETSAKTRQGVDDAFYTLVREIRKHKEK
Sequence of KRAS-G12C (C51S/C80L/C118S) (P01116 with tags, fused parts or gaps isoform P01116-2 G12C/C51S/C80L/C118S): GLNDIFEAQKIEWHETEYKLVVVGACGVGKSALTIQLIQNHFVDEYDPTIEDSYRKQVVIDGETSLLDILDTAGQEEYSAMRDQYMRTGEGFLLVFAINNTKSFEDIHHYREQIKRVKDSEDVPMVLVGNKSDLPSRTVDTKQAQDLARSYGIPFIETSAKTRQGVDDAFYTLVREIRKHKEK

Consider `C#Cc1c(F)ccc2cc(O)cc(-c3nccc4c5c(N6CCOC[C@@](C)(O)C6)nc(OC[C@@]67CCCN6C[C@H](F)C7)nc5n(C)c34)c12` [Ex-18, (S)-4-(8-(8-ethynyl-7-fluoro-3-hydroxynaphthalen-1-yl)-2-(((2R,7aS)-2-fluorotetrahydro-1H-pyrrolizin-7a(5H)-yl)methoxy)-9-methyl-9H-pyrido[4′,3′:4,5]pyrrolo[2,3-d]pyrimidin-4-yl)-6-methyl-1,4-oxazepan-6-ol], for which the IC50 in test [1] was determined as 10.5 nM; in test [2], 1.46 nM; in test [3] it was 13.1 nM.
